# Measured values published in PubChem BioAssay (NCI).
#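 How tested: cells in 96-well plates exposed to compound for 48 hours at five concentrations. The concentration for 50% growth inhibition is given as GI50. TGI: total growth inhibition.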
# Legend:
# Assay in all cases: NCI anticancer screen, dose series, 48 h
# [1] = tested on: 786-0 renal
# [2] = tested on: A498 renal
# [3] = tested on: A549 NSCLC
# [4] = tested on: ACHN renal
# [5] = tested on: BT-549 breast
# [6] = tested on: CAKI-1 renal
# [7] = tested on: CCRF-CEM leukemia
# [8] = tested on: COLO 205 colon
# [9] = tested on: DU-145 prostate
# [10] = tested on: EKVX NSCLC
# [11] = tested on: HCC-2998 colon
# [12] = tested on: HCT-116 colon
# [13] = tested on: HCT-15 colon
# [14] = tested on: HL-60(TB) leukemia
# [15] = tested on: HOP-62 NSCLC
# [16] = tested on: HS 578T breast
# [17] = tested on: HT29 colon
# [18] = tested on: IGROV1 ovarian
# [19] = tested on: K-562 leukemia
# [20] = tested on: KM12 colon
# [21] = tested on: M14 melanoma
# [22] = tested on: MALME-3M melanoma
# [23] = tested on: MDA-MB-435
# [24] = tested on: MOLT-4 leukemia
# [25] = tested on: NCI-H226 lung
# [26] = tested on: NCI-H23 lung
# [27] = tested on: NCI-H460 lung
# [28] = tested on: NCI-H522 lung
# [29] = tested on: NCI/ADR-RES ovarian
# [30] = tested on: OVCAR-3 ovarian
# [31] = tested on: OVCAR-4 ovarian
# [32] = tested on: OVCAR-5 ovarian
# [33] = tested on: OVCAR-8 ovarian
# [34] = tested on: PC-3 prostate
# [35] = tested on: RPMI-8226 leukemia
# [36] = tested on: RXF 393 renal
# [37] = tested on: SF-268 CNS
# [38] = tested on: SF-295 CNS
# [39] = tested on: SF-539 CNS
# [40] = tested on: SK-MEL-2 melanoma
# [41] = tested on: SK-MEL-28 melanoma
# [42] = tested on: SK-MEL-5 melanoma
# [43] = tested on: SK-OV-3 ovarian
# [44] = tested on: SN12C renal
# [45] = tested on: SNB-19 CNS
# [46] = tested on: SNB-75 CNS
# [47] = tested on: SR leukemia
# [48] = tested on: T-47D breast
# [49] = tested on: TK-10 renal
# [50] = tested on: U251 CNS
# [51] = tested on: UACC-257 melanoma
# [52] = tested on: UACC-62 melanoma
# [53] = tested on: UO-31 renal
smiles,measurement,setting,value
Cc1ccc2c(n1)C(=O)C(Cl)=C(Nc1ccc(C(C)C)cc1)C2=O,GI50,[1],2.08 µM
same,TGI,[1],4.5 µM
same,GI50,[2],12.5 µM
same,TGI,[2],25.2 µM
same,GI50,[3],3.26 µM
same,TGI,[3],12.4 µM
same,GI50,[4],1.66 µM
same,TGI,[4],3.09 µM
same,GI50,[5],1.51 µM
same,TGI,[5],2.9 µM
same,GI50,[6],1.53 µM
same,TGI,[6],3.15 µM
same,GI50,[7],1.9 µM
same,TGI,[7],5.78 µM
same,GI50,[8],1.89 µM
same,TGI,[8],3.97 µM
same,GI50,[9],1.73 µM
same,TGI,[9],3.24 µM
same,GI50,[10],1.5 µM
same,TGI,[10],4.18 µM
same,GI50,[11],1.99 µM
same,TGI,[11],3.65 µM
same,GI50,[12],1.52 µM
same,TGI,[12],3.41 µM
same,GI50,[13],1.39 µM
same,TGI,[13],3.14 µM
same,GI50,[14],1.44 µM
same,TGI,[14],3.5 µM
same,GI50,[15],5.34 µM
same,TGI,[15],20.1 µM
same,GI50,[16],2.07 µM
same,TGI,[16],5.96 µM
same,GI50,[17],2.57 µM
same,TGI,[17],6.44 µM
same,GI50,[18],1.29 µM
same,TGI,[18],2.96 µM
same,GI50,[19],0.351 µM
same,TGI,[19],1.68 µM
same,GI50,[20],3.25 µM
same,TGI,[20],14 µM
same,GI50,[21],1.7 µM
same,TGI,[21],3.25 µM
same,GI50,[22],1.65 µM
same,TGI,[22],3.38 µM
same,GI50,[23],1.93 µM
same,TGI,[23],3.7 µM
same,GI50,[24],2.16 µM
same,TGI,[24],6.36 µM
same,GI50,[25],1.68 µM
same,TGI,[25],4.35 µM
same,GI50,[26],1.82 µM
same,TGI,[26],5.05 µM
same,GI50,[27],3.03 µM
same,TGI,[27],13.9 µM
same,GI50,[28],2.02 µM
same,TGI,[28],4.58 µM
same,GI50,[29],2.53 µM
same,TGI,[29],9.2 µM
same,GI50,[30],1.4 µM
same,TGI,[30],2.77 µM
same,GI50,[31],1.57 µM
same,TGI,[31],3.15 µM
same,GI50,[32],1.74 µM
same,TGI,[32],3.53 µM
same,GI50,[33],2.59 µM
same,TGI,[33],9.48 µM
same,GI50,[34],1.28 µM
same,TGI,[34],3.16 µM
same,GI50,[35],1.52 µM
same,TGI,[35],4.53 µM
same,GI50,[36],1.49 µM
same,TGI,[36],2.85 µM
same,GI50,[37],1.76 µM
same,TGI,[37],3.86 µM
same,GI50,[38],3.63 µM
same,TGI,[38],13 µM
same,GI50,[39],1.62 µM
same,TGI,[39],3.07 µM
same,GI50,[40],1.81 µM
same,TGI,[40],3.54 µM
same,GI50,[41],1.83 µM
same,TGI,[41],3.33 µM
same,GI50,[42],1.59 µM
same,TGI,[42],3 µM
same,GI50,[43],10.4 µM
same,TGI,[43],22.3 µM
same,GI50,[44],2.03 µM
same,TGI,[44],5.38 µM
same,GI50,[45],1.9 µM
same,TGI,[45],4.57 µM
same,GI50,[46],1.67 µM
same,TGI,[46],5.17 µM
same,GI50,[47],0.643 µM
same,TGI,[47],3.48 µM
same,GI50,[48],1.18 µM
same,TGI,[48],3.46 µM
same,GI50,[49],2.57 µM
same,TGI,[49],4.13 µM
same,GI50,[50],1.76 µM
same,TGI,[50],3.51 µM
same,GI50,[51],1.69 µM
same,TGI,[51],3.18 µM
same,GI50,[52],1.83 µM
same,TGI,[52],3.77 µM
same,GI50,[53],1.23 µM
same,TGI,[53],2.6 µM
